Data: ChEMBL document CHEMBL1201862, “PubChem BioAssay data set” (2004)
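Where inhibition never reached the appropriate level, the endpoint shown equals the highest concentration tested. Otherwise, values were interpolated linearly from a five-concentration, 48-hour dose response in 96-well plates. Here, GI50 denotes the concentration required for 50% inhibition of growth.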 The source made the active and inactive calls. Cut-off read from the data, not from the text of the source: active = GI50 up to about 1.1 µM and inactive = higher.

Columns and labels:
Assay in all cases: inhibition of tumour cell growth, NCI panel, 48 h
NCI-H460 = tested on: NCI-H460
SK-OV-3 = tested on: SK-OV-3
SR = tested on: SR
MOLT-4 = tested on: MOLT-4
SN12C = tested on: SN12C
NCI-H23 = tested on: NCI-H23
K562 = tested on: K562
KM12 = tested on: KM12
CCRF-CEM = tested on: CCRF-CEM
SF-268 = tested on: SF-268
SK-MEL-2 = tested on: SK-MEL-2
HCT-116 = tested on: HCT-116
SNB-19 = tested on: SNB-19
A498 = tested on: A498
786-0 = tested on: 786-0
MCF7 = tested on: MCF7
MDA-MB-231 = tested on: MDA-MB-231
PC-3 = tested on: PC-3
T47D = tested on: T47D
BT-549 = tested on: BT-549

| SMILES | GI50 (NCI-H460) | GI50 (SK-OV-3) | GI50 (SR) | GI50 (MOLT-4) | GI50 (SN12C) | GI50 (NCI-H23) | GI50 (K562) | GI50 (KM12) | GI50 (CCRF-CEM) | GI50 (SF-268) | GI50 (SK-MEL-2) | GI50 (HCT-116) | GI50 (SNB-19) | GI50 (A498) | GI50 (786-0) | GI50 (MCF7) | GI50 (MDA-MB-231) | GI50 (PC-3) | GI50 (T47D) | GI50 (BT-549) |
| --- | --- | --- | --- | --- | --- | --- | --- | --- | --- | --- | --- | --- | --- | --- | --- | --- | --- | --- | --- | --- |
| CN1C(=O)CN2C(Cl)(Cl)C2(c2ccccc2)c2cc(Cl)ccc21 (stereo not drawn) | 96.2 µM (inactive) | > 100 µM (inactive) | > 10 µM (inactive) | 26.9 µM (inactive) | > 100 µM (inactive) | 89.1 µM (inactive) | 69.2 µM (inactive) | 56.5 µM (inactive) | 53.7 µM (inactive) | > 100 µM (inactive) | > 100 µM (inactive) | 65.3 µM (inactive) |  |  |  |  |  |  |  |  |
| CC12CC3(C)CC(C)(C1)CC(N=[N+]=[N-])(C2)C3 | > 100 µM (inactive) | > 100 µM (inactive) | > 100 µM (inactive) | > 100 µM (inactive) | > 100 µM (inactive) | > 100 µM (inactive) | > 100 µM (inactive) | > 100 µM (inactive) | > 100 µM (inactive) | > 100 µM (inactive) | > 100 µM (inactive) | > 100 µM (inactive) | > 100 µM (inactive) | > 100 µM (inactive) | > 100 µM (inactive) |  |  |  |  |  |
| S=c1sc2cscc2s1 | 24.1 µM (inactive) | 27.5 µM (inactive) | 27.8 µM (inactive) | 34.4 µM (inactive) | 32.6 µM (inactive) | 28.8 µM (inactive) | 42.6 µM (inactive) | 17.6 µM (inactive) | 22 µM (inactive) | 31.4 µM (inactive) | 38 µM (inactive) | 19.5 µM (inactive) | 21.3 µM (inactive) | 71.6 µM (inactive) | 19.8 µM (inactive) |  |  |  |  |  |
| CC(=O)OCC1OC(n2cc(F)c(=O)[nH]c2=O)C(N)C(OC(C)=O)C1OC(C)=O (stereo not drawn) | > 100 µM (inactive) | > 100 µM (inactive) |  | > 100 µM (inactive) | > 100 µM (inactive) | > 100 µM (inactive) | > 100 µM (inactive) | > 100 µM (inactive) | > 100 µM (inactive) | > 100 µM (inactive) | > 100 µM (inactive) | > 100 µM (inactive) | > 100 µM (inactive) | > 100 µM (inactive) |  | > 100 µM (inactive) |  |  |  |  |
| O=c1cnn(CCOCP(=O)(O)O)c(=O)[nH]1 | > 100 µM (inactive) |  |  | > 100 µM (inactive) | > 100 µM (inactive) | > 100 µM (inactive) | > 100 µM (inactive) | > 100 µM (inactive) | > 100 µM (inactive) | > 100 µM (inactive) | > 100 µM (inactive) |  | > 100 µM (inactive) | > 100 µM (inactive) |  | > 100 µM (inactive) | > 100 µM (inactive) | > 100 µM (inactive) | > 100 µM (inactive) | > 100 µM (inactive) |
| CCN(CC)CCNCc1cc(Cl)cc2c1OCOC2 | > 10 µM (inactive) | > 10 µM (inactive) | > 10 µM (inactive) | > 10 µM (inactive) | > 10 µM (inactive) | > 10 µM (inactive) | > 10 µM (inactive) | > 10 µM (inactive) | > 10 µM (inactive) | > 10 µM (inactive) | > 10 µM (inactive) | > 10 µM (inactive) | > 10 µM (inactive) | > 10 µM (inactive) |  | > 10 µM (inactive) | > 10 µM (inactive) | > 10 µM (inactive) | > 10 µM (inactive) |  |
| O=C1CSc2sc(=S)sc2S1 | > 100 µM (inactive) | > 75.3 µM (inactive) |  | > 100 µM (inactive) | > 70.1 µM (inactive) | > 100 µM (inactive) | > 100 µM (inactive) | > 100 µM (inactive) | > 76.4 µM (inactive) | > 100 µM (inactive) | > 82.4 µM (inactive) | > 100 µM (inactive) | > 100 µM (inactive) | 31.3 µM (inactive) |  | > 100 µM (inactive) |  |  |  |  |
| Cc1[nH]c(=O)[nH]c(=O)c1/C=C/C(=O)NC(CO)C[S+]([O-])C[S+](C)[O-] (stereo not drawn) | 16.6 µM (inactive) | 20.5 µM (inactive) |  | 18.7 µM (inactive) | 14.2 µM (inactive) | 10.8 µM (inactive) | 19.5 µM (inactive) | 18.4 µM (inactive) | 14.6 µM (inactive) | 4.17 µM (inactive) | 13.5 µM (inactive) | 19.3 µM (inactive) | 13.2 µM (inactive) | 21.8 µM (inactive) |  | 20.9 µM (inactive) |  |  |  |  |
| CCCO[C@@H]1[C@@H](OC(C)=O)[C@@H](OC(C)=O)C(C)(C)/C=C/[C@H](C)C(=O)[C@@]2(OC(C)=O)C[C@@](C)(OC(C)=O)[C@H](OC(C)=O)[C@@H]2[C@H]2OC(=O)CC[C@@]12OC(=O)c1ccccc1 | 6.73 µM (inactive) | > 25 µM (inactive) |  | 5.13 µM (inactive) | > 25 µM (inactive) | > 25 µM (inactive) | 4.63 µM (inactive) | > 25 µM (inactive) | 4.85 µM (inactive) | > 25 µM (inactive) | > 25 µM (inactive) | 6.97 µM (inactive) | > 25 µM (inactive) |  |  | 23.6 µM (inactive) | > 25 µM (inactive) | 20.4 µM (inactive) | > 25 µM (inactive) | 22.9 µM (inactive) |
| COc1ccc(CC/N=C2\CCC(C(=O)NCCc3ccc(OC)c(OC)c3)N2)cc1OC (stereo not drawn) | > 100 µM (inactive) | > 100 µM (inactive) |  | > 100 µM (inactive) | > 100 µM (inactive) | > 100 µM (inactive) | > 100 µM (inactive) | > 100 µM (inactive) | > 100 µM (inactive) | > 100 µM (inactive) | > 100 µM (inactive) | > 100 µM (inactive) | > 100 µM (inactive) | > 100 µM (inactive) | > 100 µM (inactive) |  |  |  |  |  |
| CN(C)C(=S)/N=c1\ss/c(=N\S(=O)(=O)c2ccccc2)n1-c1ccccc1 |  | 89.7 µM (inactive) |  | 5.35 µM (inactive) | 33 µM (inactive) | 16.1 µM (inactive) | 0.953 µM (active) | 0.217 µM (active) | 0.333 µM (active) | 38.9 µM (inactive) | 11.5 µM (inactive) |  |  | 50.9 µM (inactive) | 30.4 µM (inactive) |  |  |  |  |  |
| CCn1cc(C(c2ccc(Cl)cc2)n2ccnc2)c2cc(Br)ccc21 (stereo not drawn) |  | 17.7 µM (inactive) | 4.35 µM (inactive) | 1.85 µM (inactive) | 22.8 µM (inactive) | 14.5 µM (inactive) | 4.85 µM (inactive) | 11.4 µM (inactive) |  | 11.2 µM (inactive) | 17 µM (inactive) | 16.1 µM (inactive) | 14.3 µM (inactive) | 13.4 µM (inactive) |  | 10.1 µM (inactive) | 14.8 µM (inactive) | 9.55 µM (inactive) |  | 14.8 µM (inactive) |
| O=C1C(c2ccc(C3=[N+]([O-])c4cc([N+](=O)[O-])ccc4C3=O)cc2)=[N+]([O-])c2cc([N+](=O)[O-])ccc21 | > 10 µM (inactive) | > 10 µM (inactive) |  | > 10 µM (inactive) | > 10 µM (inactive) | > 10 µM (inactive) | > 10 µM (inactive) | > 10 µM (inactive) | > 10 µM (inactive) |  | > 10 µM (inactive) | > 10 µM (inactive) | > 10 µM (inactive) | > 10 µM (inactive) | 58.9 µM (inactive) |  |  |  |  |  |
| CCC(=O)NC(OCC1(CC)COC1)(C(F)(F)F)C(F)(F)F | > 100 µM (inactive) | > 100 µM (inactive) | > 100 µM (inactive) | > 100 µM (inactive) | > 100 µM (inactive) | > 100 µM (inactive) | > 100 µM (inactive) | > 100 µM (inactive) | > 100 µM (inactive) | > 100 µM (inactive) | > 100 µM (inactive) | > 100 µM (inactive) | > 100 µM (inactive) | > 100 µM (inactive) |  | > 100 µM (inactive) | > 100 µM (inactive) |  | > 100 µM (inactive) | > 100 µM (inactive) |
| COc1ccc(C2C(N)=NCC2c2ccccn2)cc1 (stereo not drawn) | > 100 µM (inactive) | > 100 µM (inactive) | > 100 µM (inactive) | > 100 µM (inactive) | > 100 µM (inactive) | > 100 µM (inactive) | > 100 µM (inactive) | > 100 µM (inactive) | > 100 µM (inactive) | > 100 µM (inactive) | > 100 µM (inactive) | > 100 µM (inactive) | > 100 µM (inactive) | > 100 µM (inactive) | > 100 µM (inactive) |  |  |  |  |  |
| NC(=S)N/N=C1\C(=O)Nc2c(Cl)cc(Cl)cc21 | 17.1 µM (inactive) | 41.9 µM (inactive) | 16.3 µM (inactive) | 14 µM (inactive) | 19.5 µM (inactive) | 37.6 µM (inactive) | 29.6 µM (inactive) | 18.9 µM (inactive) | 23.5 µM (inactive) |  | 15.5 µM (inactive) | 17.9 µM (inactive) | 31.3 µM (inactive) | 32.4 µM (inactive) | 22.9 µM (inactive) | 28 µM (inactive) | 22.9 µM (inactive) | 17.8 µM (inactive) |  | 21 µM (inactive) |
| C1#Cc2ccccc2OCCOc2ccccc2C#Cc2ccccc2OCCOc2ccccc21 | 24.9 µM (inactive) |  |  | 16.2 µM (inactive) | 30.7 µM (inactive) | 16.9 µM (inactive) | 11.7 µM (inactive) | 68.2 µM (inactive) | 18 µM (inactive) | 19.7 µM (inactive) | 71 µM (inactive) | 32.7 µM (inactive) | 25.9 µM (inactive) | 17.3 µM (inactive) | 10.3 µM (inactive) | > 100 µM (inactive) | 17.7 µM (inactive) | 52 µM (inactive) | 49.5 µM (inactive) | 16.6 µM (inactive) |
